Values quoted from earlier work, collected in patent publication US20170209576A1, “DELIVERY COMPOSITIONS AND METHODS” (REGENTS OF THE UNIVERSITY OF MINNESOTA, priority 2014, published 2017).

Experiments:
[1] = aqueous solution
[2] = micropipette techniques

Row | Molecule | critical micelle concentration (CMC) [1] | pKa of terminal amine group | rate of adsorption of monomers into the outer bilayer leaflet [2]
1 | 1,2-Distearoyl-sn-glycero-3-phosphoethanolamine (DSPE)-PEG^2000 [DSPE-PEG^2000] | 5.8 µM | – | –
2 | CCCCCCCCCCCCCCCC(=O)OCC(COP(=O)(O)OCCN)OC(=O)CCCCCCCCCCCCCCC (stereo not shown) [DPPE, dipalmitoylphosphatidylethanolamine] | – | 9.8 | –
3 | CCCCCCCCCCCCCCCC(=O)OC[C@@H](O)COP(=O)([O-])OCC[N+](C)(C)C [MPPC, monopalmitoyl phosphatidyl choline] | 4 µM | – | 0.2 s⁻¹
